{"source": "patent US20120039813A1", "about": "“INTRINSICALLY COLORED, LUMINESCENT SILK FIBROIN AND A METHOD OF PRODUCING THE SAME” (priority 2009, published 2012)", "key": {"silkworm [1]": {"test_system": "silkworm", "experiment": "Quantity of various dyes in sericin, fibroin and gland content of dye-fed silkworms", "source_text": "(§1) FIG. 12 depicts the quantity of various dyes in sericin and fibroin per gram of raw silk as a function of their n-octanol/water partition coefficient (log p).\n(§2) FIG. 12 summarizes the amounts of various dyes distributed in silk's fibroin and sericin as a function of log P, a measure of hydrophobicity."}, "silkworm [2]": {"test_system": "silkworm", "experiment": "Uptake of dyes into the silkworm and the silk fibroin after feeding dye-modified feed", "type": "in vivo", "conditions": "for Uptake of dye in worm / Uptake of dye in fibroin: dye fed to silkworm in modified feed; for Uptake of dye in fibroin: silk fibroin", "source_text": "The modified feed was then fed to silkworms starting on the third day of fifth instar. The silk gland, obtained through dissection, also absorbed the dye and became colored. At day 8-9 of fifth instar, the silkworms started producing intrinsically colored and fluorescent silk cocoon as shown in FIG. 3. […]"}, "physchem": {"experiment": "physchem", "source_text": "as §1, §2"}, "[3]": {"conditions": "other dye molecules apart from the rhodamine series, feeding method"}}, "note": "“Also recorded” adds a separate entry of the source."}
{"compound": "CN(C)c1ccc2cc3ccc(N(C)C)cc3nc2c1", "note": "[Acridine orange, acridine orange]", "values": [{"measurement": "Amount of dye present in silk (sericin and fibroin) and silkworm", "setting": "silkworm [1]; in vivo", "value": "very low concentration in silk"}, {"measurement": "Concentration in gland content", "setting": "silkworm [1]; in vivo", "value": "very low"}, {"measurement": "Uptake into silk gland and silk", "setting": "silkworm [2]; [3]", "value": "efficient uptake"}, {"measurement": "logP", "setting": "physchem", "value": 1.8}]}
{"compound": "O=S1(=O)OC(c2cc(Br)c(O)c(Br)c2)(c2cc(Br)c(O)c(Br)c2)c2ccccc21", "note": "[Bromophenol blue]", "values": [{"measurement": "Uptake into silk gland and silk", "setting": "silkworm [2]; [3]", "value": "did not display significant uptake"}]}
{"compound": "O=C1OC2(c3ccc(O)cc3Oc3cc(O)ccc32)c2ccccc21", "note": "[Fluorescein, fluorescein]", "values": [{"measurement": "Amount of dye present in silk (sericin and fibroin) and silkworm", "setting": "silkworm [1]; in vivo", "value": "negligible presence in silk and in silkworm"}, {"measurement": "Uptake into silk gland and silk", "setting": "silkworm [2]; [3]", "value": "did not display significant uptake"}, {"measurement": "logP", "setting": "physchem", "value": -0.79}]}
{"compound": "O=C(O)c1ccccc1C1=c2cc3c4c(c2Oc2c1cc1c5c2CCCN5CCC1)CCC[N+]=4CCC3.[Cl-]", "note": "[Rhodamine 101, rhodamine 101]", "values": [{"measurement": "Amount of dye present in silk (sericin and fibroin) and silkworm", "setting": "silkworm [1]; FIG. 12, result in words", "value": "much higher concentration"}, {"measurement": "Distribution of dye between silk sericin and fibroin", "setting": "silkworm [1]; FIG. 12, result in words", "value": "majority residing in silk fibroin rather than sericin"}, {"measurement": "Uptake of dye in worm", "setting": "silkworm [2]", "value": "yes"}, {"measurement": "Uptake of dye in fibroin", "setting": "silkworm [2]", "value": "yes"}, {"measurement": "log P (n-octanol/water partition coefficient)", "setting": "physchem", "value": 2.19}]}
{"compound": "Cl.N=c1ccc2c(-c3ccccc3C(=O)O)c3ccc(N)cc3oc-2c1", "note": "[Rhodamine 110, rhodamine 110]", "values": [{"measurement": "Amount of dye present in silk (sericin and fibroin) and silkworm", "setting": "silkworm [1]; FIG. 12, result in words", "value": "substantial amounts in both sericin and fibroin; also recorded: lower uptake"}, {"measurement": "log P (n-octanol/water partition coefficient)", "setting": "physchem", "value": 1.17}]}
{"compound": "CCN(CC)c1ccc2c(c1)Oc1cc(N(CC)CC)ccc1C21OC(=O)c2ccccc21", "note": "[Rhodamine B base, rhodamine B base]", "values": [{"measurement": "Uptake of dye in worm", "setting": "silkworm [2]", "value": "yes"}, {"measurement": "Uptake of dye in fibroin", "setting": "silkworm [2]", "value": "yes"}]}
{"compound": "CCN(CC)c1ccc2c(-c3ccccc3C(=O)O)c3ccc(=[N+](CC)CC)cc-3oc2c1.[Cl-]", "note": "[Rhodamine B, rhodamine B]", "values": [{"measurement": "Amount of dye present in silk (sericin and fibroin) and silkworm", "setting": "silkworm [1]; FIG. 12, result in words", "value": "much higher concentration"}, {"measurement": "Distribution of dye between silk sericin and fibroin", "setting": "silkworm [1]; FIG. 12, result in words", "value": "majority residing in silk fibroin rather than sericin"}, {"measurement": "Concentration in gland content", "setting": "silkworm [1]; in vivo", "value": "~1000", "unit": "µM"}, {"measurement": "Uptake of dye in worm", "setting": "silkworm [2]", "value": "yes"}, {"measurement": "Uptake of dye in fibroin", "setting": "silkworm [2]", "value": "yes"}, {"measurement": "log P (n-octanol/water partition coefficient)", "setting": "physchem; measure of hydrophobicity", "value": 2.43}]}
{"compound": "O=S(=O)([O-])c1cc(S(=O)(=O)O)ccc1C1=c2cc3c4c(c2Oc2c1cc1c5c2CCCN5CCC1)CCC[N+]=4CCC3", "note": "[sulforhodamine 101]", "values": [{"measurement": "Amount of dye present in silk (sericin and fibroin) and silkworm", "setting": "silkworm [1]; in vivo", "value": "negligible presence in silk and in silkworm"}, {"measurement": "log P (n-octanol/water partition coefficient)", "setting": "physchem", "value": "−0.69"}]}
{"compound": "Alcian blue", "values": [{"measurement": "Uptake into silk gland and silk", "setting": "silkworm [2]; in vivo", "value": "did not display significant uptake"}]}
{"compound": "rhodamine 116", "values": [{"measurement": "log P (n-octanol/water partition coefficient)", "setting": "physchem; measure of hydrophobicity", "value": 0.64}]}
{"compound": "rhodamine 123", "values": [{"measurement": "Uptake of dye in worm", "setting": "silkworm [2]", "value": "no"}, {"measurement": "Uptake of dye in fibroin", "setting": "silkworm [2]", "value": "no"}]}
